What was measured:
Assay in all cases: relative viability (nuclei count vs DMSO), 5 days (fraction); higher = more cells survive
[1] = compound: NCC(=O)Nc1ccc(-n2nc(C(F)(F)F)cc2-c2ccc3c(ccc4ccccc43)c2)cc1 + Cc1cc(Nc2cc(N3CCN(C)CC3)nc(Sc3ccc(NC(=O)C4CC4)cc3)n2)n[nH]1 [Tozasertib] (partner 0.1 µM)
In short: (§1)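 Five library-drug doses in √10 steps were combined with a fixed anchor-drug dose, or a single drug was given alone, by pin tool to lung cancer cell lines in 1536-well plates the day after seeding. Nuclei were stained and counted after 5 days. Relative viability is the nuclei count in treated wells over that in vehicle wells, taken as the median of duplicate plates.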

[2] = compound: C1CSC2=C(C(=O)N1)SC3=C2C=C(C=C3)O [kb NB 142-70] + CCNC(=O)c1noc(-c2cc(C(C)C)c(O)cc2O)c1-c1ccc(CN2CCOCC2)cc1 [Luminespib] (partner 0.01 µM)
In short: as §1

[3] = compound: NCC(=O)Nc1ccc(-n2nc(C(F)(F)F)cc2-c2ccc3c(ccc4ccccc43)c2)cc1 + COc1cccc2cc(-c3nc([C@H]4CC[C@H](C(=O)O)CC4)n4ncnc(N)c34)[nH]c12 [OSI-027] (partner 0.5 µM)
In short: as §1

[4] = compound: NCC(=O)Nc1ccc(-n2nc(C(F)(F)F)cc2-c2ccc3c(ccc4ccccc43)c2)cc1 + Cc1nc(NC(=O)N2CCC[C@H]2C(N)=O)sc1-c1ccnc(C(C)(C)C(F)(F)F)c1 [Alpelisib] (partner 2 µM)
In short: as §1

Cell Line	relative viability ([1]; first compound 0.02 µM)	relative viability ([1]; first compound 0.06325 µM)	relative viability ([1]; first compound 0.2 µM)	relative viability ([1]; first compound 0.6325 µM)	relative viability ([1]; first compound 2 µM)	relative viability ([2]; first compound 0.1 µM)	relative viability ([2]; first compound 1 µM)	relative viability ([2]; first compound 3.162 µM)	relative viability ([3]; first compound 0.02 µM)	relative viability ([3]; first compound 0.06325 µM)	relative viability ([3]; first compound 0.2 µM)	relative viability ([3]; first compound 0.6325 µM)	relative viability ([3]; first compound 2 µM)	relative viability ([4]; first compound 0.02 µM)	relative viability ([4]; first compound 0.06325 µM)	relative viability ([4]; first compound 0.2 µM)	relative viability ([4]; first compound 0.6325 µM)	relative viability ([4]; first compound 2 µM)
EKVX	0.443	0.374	0.431	0.39	0.386	0.81	0.857	0.943	0.729	0.646	0.673	0.674	0.737	0.939	0.809	0.924	0.927	1.01
EMC-BAC-2	0.29	0.314	0.325	0.308	0.302	1.25	1.17	0.972	0.292	0.367	0.371	0.361	0.387	0.742	0.75	0.764	0.772	0.715
EPLC-272H	0.299	0.225	0.365	0.313	0.234	0.361	0.216	0.157	0.307	0.246	0.28	0.311	0.274	1.06	0.916	0.917	1.05	0.936
H3255	0.657	0.511	0.749	0.686	0.713	0.881	0.845	1.12	0.557	0.617	0.629	0.667	0.596	0.782	0.651	0.746	0.811	0.731
HARA	0.0731	0.108	0.12	0.0964	0.0949	0.625	0.769	0.456	0.434	0.582	0.597	0.549	0.596	0.859	0.958	0.844	0.831	0.867
HCC-15	0.379	0.416	0.39	0.489	0.347	0.195	0.605	0.393	0.675	0.679	0.689	0.658	0.697	0.879	0.9	0.889	0.956	0.865
HCC-44	1.03	1.26	0.879	0.803	0.829	1.03	1	0.405	0.461	0.743	0.592	0.651	0.497	0.752	0.832	0.817	0.709	0.785
HCC-827	0.38	0.437	0.389	0.427	0.446	0.589	0.59	0.373	0.771	0.756	0.751	0.745	0.734	1.02	1.08	0.957	0.944	1.02
HOP-62	0.364	0.409	0.37	0.409	0.365	0.971	0.884	1.06	0.852	0.801	0.828	0.778	0.812	1.09	0.995	0.922	0.975	0.859
LC-2-ad	0.399	0.546	0.486	0.469	0.42	0.997	1.04	0.699	0.755	0.911	0.647	0.75	1.05	1.07	0.947	0.945	0.883	0.959
LCLC-97TM1	0.228	0.26	0.234	0.206	0.206	0.72	0.76	0.692	0.656	0.567	0.503	0.625	0.606	0.206	0.271	–	0.239	0.206
LCLC-103H	0.416	0.477	0.457	0.471	0.448	0.956	0.997	0.903	0.412	0.43	0.443	0.575	0.429	0.924	0.916	1.03	0.917	0.985
LK-2	0.159	0.185	0.183	0.188	0.171	0.206	0.215	0.173	0.182	0.207	0.21	0.246	0.174	1.04	1.04	0.979	1.14	0.969
LOU-NH91	0.621	0.716	0.649	0.663	0.797	0.312	0.316	0.286	0.752	0.737	0.711	0.716	0.735	0.789	0.788	0.702	0.775	0.799
LU99A	0.241	0.273	0.259	0.271	0.265	0.272	0.246	0.265	0.285	0.29	0.303	0.272	0.295	0.563	0.489	0.56	0.562	0.456
LXF-289	0.233	0.196	0.202	0.214	0.197	0.78	0.621	0.49	0.67	0.801	0.787	0.819	0.713	1.08	1.08	1.09	1.06	1.01
NCI-H23	0.332	0.453	0.314	0.358	0.369	0.231	0.207	0.201	0.576	0.664	0.809	0.608	0.531	0.59	0.774	0.865	0.806	0.725
NCI-H322M	0.54	0.461	0.517	0.491	0.517	0.767	0.947	0.693	0.532	0.536	0.556	0.546	0.566	0.756	0.772	0.824	0.657	0.831
